Source: patent publication US5589510A, “Method for inhibiting retroviral infection by administering a naphthalenesulfonic acid compound” (priority 1995, dated 1996)
Read-outs that look alike come from different tables or passages of the source.

Assays:
[1] = system: HIV-1 patient isolate IH; assay: Inhibition of HIV-1 patient isolate IH in PBMCs; assay type: cell-based; settings: Human immunodeficiency virus 1, PBMC, 288 h, read-out: % Inhibition (after day 12); for inhibition at 5 µg/mL: 5 μg/ml; for inhibition at 10 µg/mL: 10 μg/ml; for inhibition at 20 µg/mL: 20 μg/ml; for inhibition at 2.5 µg/mL: 2.5 μg/ml
Method: The inhibitory effects of additional naphthalenesulfonic acid compounds were tested as follows: Experimental Details:
PBMCs were activated for 48 hours in conditioned medium containing PHA at a concentration of 4 μg/ml. […] The test compound, previously dissolved in a glucose solution (1 mg/ml), was then added to each of the wells to achieve the appropriate concentration. The plate was then incubated overnight (about 15 hours) after which 50 μl of cell-free HIV-1 patient isolate was added to each well. The plates were incubated for further 6 to 8 hours after which all free floating solution of virus was washed off. Washing was performed four times.
After removal of the virus, all cultures were resuspended in conditioned medium containing 10% FCS.
For control experiments virus growth was monitored in either 10% FCS or 50% FCS throughout the observation period (15 days).

[2] = system: TA98, TA1535, TA1537, TA1538, TA100 and W2P2uvr; assay: Ames Test (in the presence of S9); assay type: cell-based, Salmonella typhimurium
From the text: Six Salmonella typhimuriumstrai strains, TA98, TA1535, TA1537, TA1538, TA100 and W2P2uvr were used in this experiment.

[3] = LD50, intravenous, mice; assay type: in vivo; settings: mouse, in vivo, female mice, mortalities within 1 week
Method: The test material was administered intravenously to 5 female mice in five increasing doses. Mortalities were recorded within 1 week, and the LD50 was determined with the aid of statistical calculations.

[4] = target: T1, recombinant reverse transcriptase (RT) (Human immunodeficiency virus type 1 group M subtype B, UniProt P04585); assay: Reverse transcriptase inhibition assay; assay type: biochemical, HIV-1
T1 construct: purchased Worthington Biochemical Corporation
Method: Inhibition of recombinant reverse transcriptase (RT) was performed by using commercially available Boehringer Mannheim RT assay kit (Cat. No. 1468 120) based on incorporation of digoxigenin labeled dUTP into DNA. Recombinant enzyme from HIV-1 was purchased from Worthington Biochemical Corporation. The level of anti-RT activity in the sample was determined by measurement of absorbance using an ELISA reader at 405 nm.

[5] = system: HIV-1 RF; assay: Antiviral assay, Experimental Protocol I (compound added after infection); assay type: cell-based; settings: Human immunodeficiency virus 1, 240 h, p24 ELISA, read-out: % Inhibition (after day 10); for inhibition at 0.6 µg/mL: 0.6 μg/ml; for inhibition at 1.25 µg/mL: 1.25 μg/ml; for inhibition at 2.5 µg/mL: 2.5 μg/ml; for inhibition at 5 µg/mL: 5 μg/ml
Method: HIV-1 infectivity studies were conducted in CEM, H9, MT2 cells and peripheral blood mononuclear cells (PBMC). CEM, H9 and MT2 were grown in RPMI1640 medium, 10% heat-inactivated fetal bovine serum (FBS). PBMCs were stimulated with 4 μg/ml PHA for 48 hours in RPMI1640, 10% FBS before HIV-1 infection. After HIV-1 infection, PBMCs were maintained in RPMI 1640, 10% FBS and 10 10 units/ml IL-2. The major HIV-1 isolates used were MN, IIIB, SF2, AZT-sensitive A018 and AZT-resistant A018 provided by NIH AIDS research and reference reagent program. Two major antiviral assays were developed to determine the antiviral activities of the compounds of this invention (as inhibitors).
I. The cells were infected with HIV-1 RF or IIIB at an infectivity multiplicity (moi) of 0.001 in the absence of a compound of this invention for one hour. HIV-1 infected cells were washed once with PBS, resuspended in RPMI1640, 10% FBS medium and distributed in 24-well culture dishes (5×10^5 cells per well) in the presence of a compound of this invention as inhibitor. […]

Row | Structure (SMILES) | inhibition at 5 µg/mL ([1]; 10% FCS) [%] | inhibition at 10 µg/mL ([1]; 10% FCS) [%] | inhibition at 20 µg/mL ([1]; 10% FCS) [%] | Ames Test result [2] | LD50 at 168 h [3] [mg/kg] | other results
1 | COc1cc(N=Nc2c(S(=O)(=O)O)cc3cc(S(=O)(=O)O)cc(NC(=O)c4cccc5ccccc45)c3c2O)c(OC)cc1N=Nc1ccc2cc(S(=O)(=O)O)cc(NC(=O)c3ccccc3)c2c1O [Compound 13] | 55 | 70 | 100 | Negative | 160 | 
2 | COc1cc(N=Nc2c(S(=O)(=O)O)cc3cc(S(=O)(=O)O)cc(NC(=O)c4ccc(Cl)c(Cl)c4)c3c2O)c(OC)cc1N=Nc1c(S(=O)(=O)O)cc2cc(S(=O)(=O)O)cc(NC(=O)c3ccc(Cl)c(Cl)c3)c2c1O [Compound 10] |  |  |  | Negative | 140 | inhibition at 0.5 µM ([4]; at 0.5 μM): 55%
3 | COc1cc(N=Nc2c(S(=O)(=O)O)cc3cc(S(=O)(=O)O)cc(NC(=O)c4cc(Cl)ccc4Cl)c3c2O)c(OC)cc1N=Nc1c(S(=O)(=O)O)cc2cc(S(=O)(=O)O)cc(NC(=O)c3ccc(Cl)c(Cl)c3)c2c1O [Compound 12] | 85 | 100 | 100 | Negative | 190 | inhibition at 2.5 µg/mL ([1]; 10% FCS): 0%; inhibition at 2.5 µg/mL ([1]; 50% Human Serum): 0%; inhibition at 5 µg/mL ([1]; 50% Human Serum): 0%; inhibition at 10 µg/mL ([1]; 50% Human Serum): 90%; inhibition at 20 µg/mL ([1]; 50% Human Serum): 93%; inhibition at 0.3 µg/mL ([5]; 10% FCS, 0.3 μg/ml): 86%; inhibition at 0.6 µg/mL ([5]; 10% FCS): 96%; inhibition at 1.25 µg/mL ([5]; 10% FCS): 99%; inhibition at 2.5 µg/mL ([5]; 10% FCS): 100%; inhibition at 5 µg/mL ([5]; 10% FCS): 100%; inhibition at 0.6 µg/mL ([5]; 50% Human Serum): 0%; inhibition at 1.25 µg/mL ([5]; 50% Human Serum): 0%; inhibition at 2.5 µg/mL ([5]; 50% Human Serum): 40%; inhibition at 5 µg/mL ([5]; 50% Human Serum): 93%
4 | COc1cc(N=Nc2c(S(=O)(=O)O)cc3cc(S(=O)(=O)O)cc(NC(=O)c4cccc(Cl)c4Cl)c3c2O)c(OC)cc1N=Nc1c(S(=O)(=O)O)cc2cc(S(=O)(=O)O)cc(NC(=O)COc3ccccc3)c2c1O [Compound 4] | 60 | 88 | 98 | Negative | 160 | 
5 | COc1cc(N=Nc2c(S(=O)(=O)O)cc3cc(S(=O)(=O)O)cc(NC(=O)c4cccc(Cl)c4Cl)c3c2O)c(OC)cc1N=Nc1c(S(=O)(=O)O)cc2cc(S(=O)(=O)O)cc(NC(=O)c3ccccc3Cl)c2c1O [Compound 21] | 23 | 77 | 100 | Negative | 160 | inhibition at 2.5 µg/mL ([1]; 10% FCS): 0%; inhibition at 2.5 µg/mL ([1]; 50% Human Serum): 10%; inhibition at 5 µg/mL ([1]; 50% Human Serum): 23%; inhibition at 10 µg/mL ([1]; 50% Human Serum): 61%; inhibition at 20 µg/mL ([1]; 50% Human Serum): 100%
6 | COc1cc(N=Nc2c(S(=O)(=O)O)cc3cc(S(=O)(=O)O)cc(NC(=O)c4ccc(Cl)cc4Cl)c3c2O)c(OC)cc1N=Nc1c(S(=O)(=O)O)cc2cc(S(=O)(=O)O)cc(NC(=O)Cc3ccc(Cl)cc3)c2c1O [Compound 18] |  |  |  | Negative | 135 | inhibition at 5 µM [4]: 66%
7 | COc1cc(N=Nc2c(S(=O)(=O)O)cc3cc(S(=O)(=O)O)cc(NC(=O)c4ccccc4)c3c2O)c(OC)cc1N=Nc1c(S(=O)(=O)O)cc2cc(S(=O)(=O)O)cc(NC(C)=O)c2c1O [Compound 5] | 45 | 77 | 77 | Negative | 120 | inhibition at 0.6 µg/mL ([5]; 10% FCS): 45%; inhibition at 1.25 µg/mL ([5]; 10% FCS): 87%; inhibition at 2.5 µg/mL ([5]; 10% FCS): 100%; inhibition at 5 µg/mL ([5]; 10% FCS): 100%
8 | COc1cc(N=Nc2c(S(=O)(=O)O)cc3cc(S(=O)(=O)O)cc(NC(=O)Nc4cccc5ccccc45)c3c2O)c(OC)cc1N=Nc1c(S(=O)(=O)O)cc2cc(S(=O)(=O)O)cc(NC(C)=O)c2c1O [Compound 16] |  |  |  | Positive | 160 | Ames Test, specific mutagenic activity ([2]; the higher the value, the higher the mutagenicity): 0.03 colony no/μg; inhibition at 5 µM [4]: 98%
